According to patent US5312928A, “Calcium channel antagonists and methodology for their identification” (priority 1991, dated 1994):
Entries after “also recorded” stand apart in the source; their conditions may differ.

What was measured:
[1] = test system: L-type calcium channels (GH4 C1 cells); experiment: Microscreen assay: K+-stimulated 45Ca uptake by GH4C1 clonal pituitary cells; type: cell-based, rat
Method: Frozen crude venom (40 μl) was thawed on ice and mixed with 210 μl of ice-cold 0.1% trifluoroacetic acid (TFA) in H2 O. The solution was centrifuged at room temperature for 5 min. at 13,000 rpm with an Eppendorf Centrifuge, and 240 μl of the supernatant was applied to a reversed-phase C18 HPLC column (100×250 mm, 5 μm bead size, 100 Å pore size, prepacked NGA column from The NEST Group). HPLC was performed using an acetonitrile gradient of 0 to 30% in 0.1% TFA in 105 min. at a flow rate of 4.0 ml/min. The elution was monitored by absorbance at 214 nm and 254 nm, and the fractions were collected manually according to the elution profile. Samples representing 5% of each fraction (corresponding to 2 μl crude venom per sample) were dried by Speed Vac (Savant), suspended in a buffer, and tested for their ability to block ^45 Ca^+ 2 influx into rat GH4C1 cells (see "Microscreen Assay for L-Type Calcium Channel Blockers" below).
Microscreen Assay for L-Type Calcium Channel Blockers
The rat GH4 C1 pituitary cells, a widely available cell line obtained from Dr. Armen Tashjian, Harvard Medical School, was used to measure effect of DOC preparations on calcium influx into cells.
Cell stocks were kept frozen in liquid nitrogen until needed. One ampule was thawed and then seeded onto a T-75 culture flask and grown to confluency. Thereafter, the cells were treated with a 1% trypsin solution in Hanks and replated onto T-25 culture flasks at different dilutions. Stocks were then kept growing and split as needed rather than refrozen. The medium used was Ham's F-10 supplied by Media-Tech containing 10% heat-inactivated fetal calf serum purchased from Hyclone. In general, the best response was obtained from 3-5 day post-confluent cells.
Cell suspension from one T-25 flask was prepared as follows for experiments. The flask was gently washed 2× with Hanks. 10 ml of warm 0.02% EDTA-Hanks was added to the flask and allowed to stand for approximately 30 seconds. The plate was sloshed, inverted and banged on a hard surface to dislodge the cells. 0.6 ml CMT-Hanks was immediately added and sloshed. The cells were then transferred to a 15 ml centrifuge tube and spun for 20-30 seconds at 50 g (700 RPM).
With a pipette, the supernatant was gently aspirated and resuspended by triturating the pellet in 0.4 ml HBBS. The cells were then transferred to a 4 ml flat bottom glass vial with a magnetic flea and stirred at the slowest speed.
Thereafter, low K^+ or high K^+ 4.2 μl ^45 Ca stock [eq. to 2 uCi/4.2 μl cells] was added to the tube and incubation was continued for 1 min. 790 μl HBBS was added to quench calcium uptake by the cells. The mixture was then pipetted up and down 2× before it was subjected to filtration in an Amicon filter manifold with a Whatman glass fiber filter. The filter was rinsed 5× with 5 ml HBBS buffer each. It is important that the buffer be squirted at the side of the chimney, straight down and not directly at the filter, since this may wash cells back up off the filter and onto the chimney. It is also important not to cause a whirlpool effect with the wash and create uneven rinsing of the filter.
A separate chimney for each well was used and each chimney was washed after use.
About 1 min. after the rinse, the chimney was removed to relieve the filter of suction to minimize loss of counts due to cell disruption. A set of four blanks (i.e., measurements using the same solutions but without cells) was run at the end of the assay to determine the background counts.

[2] = test system: dihydropyridine binding sites on the L-type calcium channels; settings: up to 0.6 units/ml; rat brain membranes
Description: Other compounds which act through the same binding site as the dihydropyridines will inhibit this [^3 H]nimodipine binding.

[3] = test system: L-type calcium channels (GH4 C1 cells); experiment: Whole-cell voltage-clamp electrophysiology, GH4 C1 cells; type: cell-based, rat
[4] = test system: K currents, N1E-115 cells; type: cell-based, murine; settings: @ 1 U/ml
[5] = test system: T-type calcium channels (N1E-115 cells); type: cell-based, murine
[6] = test system: L-channels? (cortical neurons); experiment: Block of K-stimulated 45Ca uptake, cortical neurons; type: cell-based
Description: Summarized in the Table below are results of experiments designed to study the effect of DOC1 on calcium channels by calcium 45 uptake measurement and electrophysiological method, both of which are described above.

[7] = test system: Na current, N1E-115 cells; type: cell-based, murine
[8] = test system: synaptosomal calcium channels; experiment: Microscreen assay: K+-stimulated 45Ca uptake by synaptosomes; type: biochemical, rat
Method: The screening method used to test calcium blocking activity in GH4 C1 cells of venom preparations, as described above, was modified as follows for determining the effect of DOC1 on synaptosomal calcium uptake.
After the buffers were made, the osmolarity of the quench buffer was adjusted by dilution with ddH2 O to approximately equal to the average of the osmolarities of the other 3 buffers. All the buffers were made up in ddH^2 O only.
For basal uptake: 5 μl NEN stock+995 μl low K+Ca buffer.
For depolarized (i.e., high K^+) uptake: 5 μl NEN+995 μl high K+Ca buffer.
The synaptosome preparation described below was an adoption of a published procedure. [Hajos F., Brain Res. 93:485-489 (1975)].
Basal buffer used was of the following composition: Basal buffer, pH 7.4, was of following composition: NaCl 147 mM, KCl 3 mM, HEPES 10 mM, Dextrose 10 mM, MgCl2 1.2 mM, and EGTA-Tris 1 mM. The high-K^+ buffer was the same as the basal buffer except that concentrations of NaCl and KCl were 95 mM and 55 mM, respectively.
Synaptosomes were prepared from CD male rats of 4 to 6 weeks (50-75 g). Rats were killed by decapitation with guillotine, and the skull bone was opened in the center with the pointed blade of dissection scissors. The bone was then peeled away with a bone cutter and the brain pried with a micro spatula. […]

[9] = test system: DHP-resistant R-channels (N1E-115 cells); type: cell-based, murine
L-type channels = settings: characteristic of dihydropyridines, background; read-out: IC50 for L-channel block; cited from earlier work
stroke = settings: cited from earlier work

## NCCCNCCCNCCCNCCCCCNC(=O)Cc1c[nH]c2cccc(O)c12 [DOC1]
[1]; FIG. 6, DOC1 compared with DOC3
  relative potency DOC1 vs DOC3 in blocking calcium uptake: several-fold more potent than DOC3
[1]; GH4 C1 clonal pituitary cells
  activity in the 45Ca2+ influx assay / block of potassium-stimulated calcium uptake (in words): blocked potassium-stimulated calcium uptake; also recorded: active; also recorded: possess calcium blocking activity
[1]; consistent inhibitory effects, IC50 varied among GH4 C1 cultures
  Block of DHP-sensitive L-type channels, GH4 C1 clonal pituitary cells, 45Ca uptake, IC50: 0.4-1.5 units/ml
[2]
  inhibition of [3H]nimodipine binding (in words): no significant inhibition; also recorded: no inhibition of nimodipine binding
[3]; 0.4-1.0 U/ml, depolarizations to between -10 and +20 mV
  block of current through calcium channels, GH4 C1 cells: up to 80%
[3]; FIG. 10
  reversibility of block of calcium channel current, GH4 C1 cells: reversibly blocked; also recorded: capable of reversibly blocking electrical current
[3]; puff application
  Block of DHP-sensitive L-type channels, GH4 C1 clonal pituitary cells, electrophysiol, IC50: 1.5 units/ml
[4]
  Block of K currents, N1E-115 cells: 12%
[5]; evoked by weak depolarizations from negative holding potentials, FIG. 11C
  effect on T-type current (in words): did not substantially affect the T-type current; also recorded: no block of putative T-type channels was observed; also recorded: little effect on T-type current
[5]; words in the IC50 column
  Block of low threshold, inactivating (T?) channels, N1E-115 cells (electrophysiol), IC50: none
[6]; IC50 varied among sensitive cultures
  Block of K-stimulated 45Ca uptake (L-channels?), cortical neurons, IC50: 0.1-0.4 units/ml
[6]; some cultures of cortical neurons
  sensitivity of cortical neuron cultures (in words): insensitive
[7]; Na or K channels, N1E-115 cells
  specificity for Ca channels over Na or K channels (in words): striking specificity
[7]; on the order of
  selectivity for Ca versus Na currents: two
[7]; words in the IC50 column
  Block of Na current, N1E-115 cells, IC50: not signif.
[8]; concentrations up to 0.5 units/ml, not more than about 30%
  inhibition of K+-stimulated calcium uptake by synaptosomes: ≤ 30%
[8]; in comparison with block of L-type channels in GH4 C1 cells
  block of synaptosomal calcium channels (in words): substantially less effective and potent
[9]
  Block of DHP-resistant R-channels, N1E-115 cells (electrophys), IC50: 0.4 units/ml
[9]; 10 μM nimodipine, maximum block 45%, FIG. 12
  concentration yielding half-maximal inhibition of high-threshold current remaining after nimodipine: 0.37 U/ml
[9]; 1.0 U/ml DOC1, 10 μM nimodipine, FIG. 11A, 11B
  inhibition of high-threshold current in continuous presence of nimodipine (in words): inhibition of the high-threshold current; also recorded: blocks high-threshold current
[9]; upon washout
  reversibility and dose-dependence of the actions: reversible upon washout and were dose-dependent

## COC(=O)C1=C(C)NC(C)=C(C(=O)OC)C1c1ccccc1[N+](=O)[O-] [nifedipine]
L-type channels
  IC50: < 1000 nM

## COCCOC(=O)C1=C(C)NC(C)=C(C(=O)OC(C)C)C1c1cccc([N+](=O)[O-])c1 (stereo not shown) [nimodipine]
stroke; background statement
  cardiovascular side effects: significant cardiovascular side effects
stroke; clinical trials, Gelmers et al. 1988
  improvement in the outcome of stroke in clinical trials: Modest improvement in the outcome of stroke
L-type channels
  IC50: < 1000 nM
